{"source": "paper PMC4579270", "about": "“Identification and Characterization of an Irreversible Inhibitor of CDK2” (Chemistry & Biology, 2015)", "experiment_in_all_cases": "Dundee protein kinase screen", "assay_type_in_all_cases": "biochemical", "key": {"[1]": {"biological_target": "DYRK3 (Homo sapiens, UniProt O43781)", "sequence (O43781 whole entry)": "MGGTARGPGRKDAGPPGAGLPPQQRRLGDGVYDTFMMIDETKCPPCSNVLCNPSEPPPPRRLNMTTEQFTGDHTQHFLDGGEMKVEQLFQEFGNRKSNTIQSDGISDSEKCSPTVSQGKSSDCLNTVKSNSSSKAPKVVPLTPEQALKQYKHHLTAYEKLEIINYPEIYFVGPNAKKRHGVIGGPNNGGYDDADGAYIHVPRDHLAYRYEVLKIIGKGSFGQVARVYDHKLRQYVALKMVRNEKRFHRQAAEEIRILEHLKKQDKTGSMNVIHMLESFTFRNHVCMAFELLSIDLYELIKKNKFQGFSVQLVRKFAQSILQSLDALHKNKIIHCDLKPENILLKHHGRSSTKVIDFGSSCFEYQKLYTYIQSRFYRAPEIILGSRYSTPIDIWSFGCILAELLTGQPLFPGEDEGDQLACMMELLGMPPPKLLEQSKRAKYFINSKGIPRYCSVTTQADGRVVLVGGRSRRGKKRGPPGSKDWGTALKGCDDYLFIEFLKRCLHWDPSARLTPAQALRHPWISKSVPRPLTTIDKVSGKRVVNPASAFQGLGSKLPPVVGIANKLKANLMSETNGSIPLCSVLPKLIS", "settings": "DYRK3, 1µM; read-out: %Remaining activity at 1µM NU6300", "method_in_brief": "(§1)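 Selectivity panel of 131 protein kinases, inhibitor tested at a single concentration of 1 µM; values are % kinase activity remaining, mean of duplicates. Re-test of selected kinases used 0.5 µM in the standard format and again after a 4 hour pre-incubation with the inhibitor.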"}, "[2]": {"biological_target": "FGF-R1 (Homo sapiens, UniProt P11362)", "settings": "FGF-R1, 1µM; read-out: %Remaining activity at 1µM NU6300", "method_in_brief": "as §1"}, "[3]": {"biological_target": "IRAK1 (Homo sapiens, UniProt P51617)", "sequence (P51617 whole entry)": "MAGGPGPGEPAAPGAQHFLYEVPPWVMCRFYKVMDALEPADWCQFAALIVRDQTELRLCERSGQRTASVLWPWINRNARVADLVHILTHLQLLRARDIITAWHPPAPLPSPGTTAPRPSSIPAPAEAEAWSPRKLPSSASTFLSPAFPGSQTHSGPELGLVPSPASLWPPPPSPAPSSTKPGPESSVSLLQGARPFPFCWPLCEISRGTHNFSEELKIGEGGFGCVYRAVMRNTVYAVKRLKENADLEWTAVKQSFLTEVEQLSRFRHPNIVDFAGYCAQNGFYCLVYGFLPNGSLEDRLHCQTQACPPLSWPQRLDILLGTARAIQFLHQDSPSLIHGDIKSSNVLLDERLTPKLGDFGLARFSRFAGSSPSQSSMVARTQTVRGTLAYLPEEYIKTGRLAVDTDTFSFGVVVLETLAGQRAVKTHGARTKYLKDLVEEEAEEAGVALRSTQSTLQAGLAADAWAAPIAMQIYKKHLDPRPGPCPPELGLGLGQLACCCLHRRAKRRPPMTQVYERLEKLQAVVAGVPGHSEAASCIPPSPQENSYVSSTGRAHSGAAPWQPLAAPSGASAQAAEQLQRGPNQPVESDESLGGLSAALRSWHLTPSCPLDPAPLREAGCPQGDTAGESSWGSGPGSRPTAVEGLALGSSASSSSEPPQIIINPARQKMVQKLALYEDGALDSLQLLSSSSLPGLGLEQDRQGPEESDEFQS", "settings": "IRAK1, 1µM; read-out: %Remaining activity at 1µM NU6300", "method_in_brief": "as §1"}, "[4]": {"biological_target": "MEKK1 (Homo sapiens, UniProt Q13233)", "sequence (Q13233 whole entry)": "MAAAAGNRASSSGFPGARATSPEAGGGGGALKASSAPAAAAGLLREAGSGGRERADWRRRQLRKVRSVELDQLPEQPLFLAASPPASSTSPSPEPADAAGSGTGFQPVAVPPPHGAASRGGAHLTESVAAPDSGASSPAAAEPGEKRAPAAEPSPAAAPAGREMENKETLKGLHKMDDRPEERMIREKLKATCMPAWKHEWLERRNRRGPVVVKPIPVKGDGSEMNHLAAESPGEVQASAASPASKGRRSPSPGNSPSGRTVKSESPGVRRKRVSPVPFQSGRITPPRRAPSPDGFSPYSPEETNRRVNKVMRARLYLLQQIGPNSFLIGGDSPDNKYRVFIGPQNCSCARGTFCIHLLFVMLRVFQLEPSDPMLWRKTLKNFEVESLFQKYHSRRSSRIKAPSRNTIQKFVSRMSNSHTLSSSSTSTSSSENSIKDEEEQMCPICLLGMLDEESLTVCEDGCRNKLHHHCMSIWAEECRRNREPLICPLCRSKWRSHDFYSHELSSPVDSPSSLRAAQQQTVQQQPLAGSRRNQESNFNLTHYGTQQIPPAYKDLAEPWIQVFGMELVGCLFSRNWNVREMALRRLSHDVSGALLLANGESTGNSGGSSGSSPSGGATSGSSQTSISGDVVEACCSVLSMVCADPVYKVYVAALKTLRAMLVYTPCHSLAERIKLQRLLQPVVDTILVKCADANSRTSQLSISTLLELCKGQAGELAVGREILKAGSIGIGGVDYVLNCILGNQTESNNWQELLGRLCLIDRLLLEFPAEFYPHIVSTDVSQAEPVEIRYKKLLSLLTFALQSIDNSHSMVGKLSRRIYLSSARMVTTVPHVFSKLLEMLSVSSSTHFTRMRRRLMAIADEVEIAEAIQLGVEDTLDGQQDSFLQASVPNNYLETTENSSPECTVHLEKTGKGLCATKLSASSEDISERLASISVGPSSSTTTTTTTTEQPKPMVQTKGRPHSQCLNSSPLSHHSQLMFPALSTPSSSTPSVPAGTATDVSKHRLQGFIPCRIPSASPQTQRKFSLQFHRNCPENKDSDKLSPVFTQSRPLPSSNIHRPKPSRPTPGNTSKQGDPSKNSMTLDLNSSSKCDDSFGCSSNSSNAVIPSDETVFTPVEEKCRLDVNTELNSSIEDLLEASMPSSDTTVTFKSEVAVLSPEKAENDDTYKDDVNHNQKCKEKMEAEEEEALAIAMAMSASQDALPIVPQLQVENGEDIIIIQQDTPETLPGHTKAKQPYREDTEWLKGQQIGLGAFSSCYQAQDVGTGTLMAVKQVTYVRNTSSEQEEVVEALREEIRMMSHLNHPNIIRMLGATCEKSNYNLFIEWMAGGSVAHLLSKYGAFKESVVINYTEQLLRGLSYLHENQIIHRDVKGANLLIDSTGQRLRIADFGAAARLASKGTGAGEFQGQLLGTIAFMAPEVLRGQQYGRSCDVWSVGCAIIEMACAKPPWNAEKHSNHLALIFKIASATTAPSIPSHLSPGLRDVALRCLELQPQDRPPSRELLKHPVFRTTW", "settings": "MEKK1, 1µM; read-out: %Remaining activity at 1µM NU6300", "method_in_brief": "as §1"}, "[5]": {"biological_target": "MKK6 (Homo sapiens, UniProt P52564)", "sequence (P52564 whole entry)": "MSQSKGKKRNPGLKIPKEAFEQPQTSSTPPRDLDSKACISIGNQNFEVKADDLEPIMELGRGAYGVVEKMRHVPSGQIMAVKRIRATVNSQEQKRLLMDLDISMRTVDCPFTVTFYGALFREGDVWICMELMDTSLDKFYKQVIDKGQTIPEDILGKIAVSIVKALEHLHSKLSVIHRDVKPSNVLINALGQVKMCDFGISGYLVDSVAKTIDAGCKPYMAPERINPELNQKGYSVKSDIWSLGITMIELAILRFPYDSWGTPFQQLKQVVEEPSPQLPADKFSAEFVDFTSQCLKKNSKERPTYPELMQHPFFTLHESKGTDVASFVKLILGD", "settings": "MKK6, 1µM; read-out: %Remaining activity at 1µM NU6300", "method_in_brief": "as §1"}, "[6]": {"biological_target": "MLK3 (Homo sapiens, UniProt Q16584)", "settings": "MLK3, 1µM; read-out: %Remaining activity at 1µM NU6300", "method_in_brief": "as §1"}, "[7]": {"biological_target": "PAK2 (Homo sapiens, UniProt Q13177)", "sequence (Q13177 whole entry)": "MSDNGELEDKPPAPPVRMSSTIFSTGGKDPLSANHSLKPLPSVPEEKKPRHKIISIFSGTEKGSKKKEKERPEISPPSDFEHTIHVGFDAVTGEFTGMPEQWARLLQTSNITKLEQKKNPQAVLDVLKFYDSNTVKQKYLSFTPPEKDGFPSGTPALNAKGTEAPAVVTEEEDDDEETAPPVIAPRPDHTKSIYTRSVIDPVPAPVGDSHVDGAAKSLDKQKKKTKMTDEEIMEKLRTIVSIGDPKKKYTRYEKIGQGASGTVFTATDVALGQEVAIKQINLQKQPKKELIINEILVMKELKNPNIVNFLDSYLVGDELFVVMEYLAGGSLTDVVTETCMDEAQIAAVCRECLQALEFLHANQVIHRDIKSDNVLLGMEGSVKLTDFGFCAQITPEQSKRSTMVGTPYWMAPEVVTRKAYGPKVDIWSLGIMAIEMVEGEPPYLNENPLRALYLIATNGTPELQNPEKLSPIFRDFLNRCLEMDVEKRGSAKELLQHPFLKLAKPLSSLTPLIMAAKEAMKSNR", "settings": "PAK2, 1µM; read-out: %Remaining activity at 1µM NU6300", "method_in_brief": "as §1"}, "[8]": {"biological_target": "PRAK (Homo sapiens, UniProt Q8IW41)", "sequence (Q8IW41 whole entry)": "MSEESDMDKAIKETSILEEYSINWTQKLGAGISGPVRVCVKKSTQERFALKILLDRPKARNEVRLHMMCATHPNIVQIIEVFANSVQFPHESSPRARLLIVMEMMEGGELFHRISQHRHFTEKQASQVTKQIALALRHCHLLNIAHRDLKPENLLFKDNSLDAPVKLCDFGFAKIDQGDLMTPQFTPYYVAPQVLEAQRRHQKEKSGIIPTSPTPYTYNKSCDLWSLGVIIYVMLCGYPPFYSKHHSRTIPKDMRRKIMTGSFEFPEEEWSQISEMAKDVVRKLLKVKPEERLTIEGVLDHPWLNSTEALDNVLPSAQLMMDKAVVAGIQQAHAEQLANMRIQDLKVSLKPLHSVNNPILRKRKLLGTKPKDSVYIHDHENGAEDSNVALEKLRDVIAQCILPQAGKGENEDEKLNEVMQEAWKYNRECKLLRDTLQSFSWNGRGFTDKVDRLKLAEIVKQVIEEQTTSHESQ", "settings": "read-out: %Remaining activity at 1µM NU6300", "method_in_brief": "as §1"}, "[9]": {"biological_target": "T1, TAO1 (Homo sapiens, UniProt Q7L7X3)", "T1 sequence (Q7L7X3 1-1001)": "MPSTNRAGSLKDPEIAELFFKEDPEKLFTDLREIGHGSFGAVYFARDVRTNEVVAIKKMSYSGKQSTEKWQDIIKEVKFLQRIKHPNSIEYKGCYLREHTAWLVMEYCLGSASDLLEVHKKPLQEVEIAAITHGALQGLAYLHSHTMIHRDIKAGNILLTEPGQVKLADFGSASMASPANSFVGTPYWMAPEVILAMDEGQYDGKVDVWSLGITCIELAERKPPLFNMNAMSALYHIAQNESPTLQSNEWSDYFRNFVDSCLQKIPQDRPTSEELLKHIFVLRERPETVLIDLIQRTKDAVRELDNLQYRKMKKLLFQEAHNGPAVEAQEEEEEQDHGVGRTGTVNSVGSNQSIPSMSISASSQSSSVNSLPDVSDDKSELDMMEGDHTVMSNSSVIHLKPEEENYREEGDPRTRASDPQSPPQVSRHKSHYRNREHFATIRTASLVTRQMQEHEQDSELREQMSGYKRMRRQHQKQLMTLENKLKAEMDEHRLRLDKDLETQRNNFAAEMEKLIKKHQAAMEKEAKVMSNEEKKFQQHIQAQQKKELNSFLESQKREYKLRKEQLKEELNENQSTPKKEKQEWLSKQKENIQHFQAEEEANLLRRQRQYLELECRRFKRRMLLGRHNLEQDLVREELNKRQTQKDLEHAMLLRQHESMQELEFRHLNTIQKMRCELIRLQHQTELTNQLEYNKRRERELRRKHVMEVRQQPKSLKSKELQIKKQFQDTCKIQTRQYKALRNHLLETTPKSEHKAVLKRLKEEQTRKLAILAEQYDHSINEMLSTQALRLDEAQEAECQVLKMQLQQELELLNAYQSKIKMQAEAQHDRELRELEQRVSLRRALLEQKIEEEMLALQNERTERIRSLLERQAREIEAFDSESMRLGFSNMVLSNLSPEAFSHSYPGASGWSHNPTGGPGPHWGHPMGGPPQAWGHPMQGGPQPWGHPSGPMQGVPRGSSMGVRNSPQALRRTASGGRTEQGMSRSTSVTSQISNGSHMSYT", "settings": "TAO1, 1µM; read-out: %Remaining activity at 1µM NU6300", "method_in_brief": "as §1"}, "[10]": {"biological_target": "ZAP70 (Homo sapiens, UniProt P43403)", "sequence (P43403 whole entry)": "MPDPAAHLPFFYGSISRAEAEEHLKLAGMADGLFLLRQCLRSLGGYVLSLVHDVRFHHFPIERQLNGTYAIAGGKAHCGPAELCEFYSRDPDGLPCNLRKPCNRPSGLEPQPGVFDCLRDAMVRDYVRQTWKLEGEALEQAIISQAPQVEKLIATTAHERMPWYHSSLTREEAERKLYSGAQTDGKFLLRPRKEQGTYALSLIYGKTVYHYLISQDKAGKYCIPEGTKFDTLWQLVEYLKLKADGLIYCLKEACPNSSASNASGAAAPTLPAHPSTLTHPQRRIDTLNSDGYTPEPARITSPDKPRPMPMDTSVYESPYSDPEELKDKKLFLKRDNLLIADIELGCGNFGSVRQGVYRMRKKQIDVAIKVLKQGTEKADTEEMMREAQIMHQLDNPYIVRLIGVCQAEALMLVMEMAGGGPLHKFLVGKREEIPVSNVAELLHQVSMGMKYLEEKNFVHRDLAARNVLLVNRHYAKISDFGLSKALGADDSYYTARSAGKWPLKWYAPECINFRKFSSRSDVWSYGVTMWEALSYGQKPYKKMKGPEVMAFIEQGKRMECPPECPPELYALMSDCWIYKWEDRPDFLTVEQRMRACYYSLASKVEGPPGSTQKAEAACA", "settings": "ZAP70, 1µM; read-out: %Remaining activity at 1µM NU6300", "method_in_brief": "as §1"}}}
{"smiles": "C=CS(=O)(=O)c1ccc(Nc2nc(OCC3CCCCC3)c3nc[nH]c3n2)cc1", "note": "[NU6300, 6-(cyclohexylmethoxy)-N-(4-(vinylsulfonyl)phenyl)-9H-purin-2-amine]", "values": [{"measurement": "remaining activity at 1 µM", "setting": "[1]", "result": 91, "unit": "%"}, {"measurement": "remaining activity at 1 µM", "setting": "[2]", "result": 62, "unit": "%"}, {"measurement": "remaining activity at 1 µM", "setting": "[3]", "result": 37, "unit": "%"}, {"measurement": "remaining activity at 1 µM", "setting": "[4]", "result": 89, "unit": "%"}, {"measurement": "remaining activity at 1 µM", "setting": "[5]", "result": 85, "unit": "%"}, {"measurement": "remaining activity at 1 µM", "setting": "[6]", "result": 16, "unit": "%"}, {"measurement": "remaining activity at 1 µM", "setting": "[7]", "result": 92, "unit": "%"}, {"measurement": "remaining activity at 1 µM", "setting": "[8]", "result": 77, "unit": "%"}, {"measurement": "remaining activity at 1 µM", "setting": "[9]", "result": 27, "unit": "%"}, {"measurement": "remaining activity at 1 µM", "setting": "[10]", "result": 90, "unit": "%"}]}
